US11497785B2, “Oral anti-parasitic composition” (Mars, Incorporated, priority 2013, dated 2022)
Converted amounts (≈) assume the structure as drawn.

Tested on: Neospora caninum
Assay: Proliferation assay of Neospora caninum in HFF cells, tritiated uracil incorporation
Assay type: cell-based
Settings: positive control, read-out: ICSO
Method: In order to solubilize the essential oils, the oils were diluted in dimethyl sulfoxide (DMSO) and then spread in the cell culture medium (DMEM) that was supplemented with 10% fetal calf serum (D10). DMSO was also used at a final concentration not exceeding 0.1%. Separate cultures of both parasites, Toxoplasma gondii and Neospora caninum, were prepared in vitro in human cell type HFF (Human Foreskin Fibroblasts), grown at 37° C. under 5% CO2 in a D10 medium. Both cultures were similar, the inoculum used for the various tests were the same, […] per well. It was observed that growing Neospora caninum is slower than that of Toxoplasma gondii.
Proliferation of the parasite in the cells is measured by counting the specific radioactivity of the incorporated tritiated uracil and compared to the control without essential oil (100% proliferation). The test is performed in 24-well plates and the whole test lasts about 24 hours. The positive control is achieved using pyrimethamine (ICSO: 0.1 μg/mL).
Values represent inhibition of proliferation.
The inhibition of proliferation was measured by incorporating tritiated uracil in both Toxoplasma gondii and Neospora caninum and the viability of HFF cells was assessed using MTT assay.

IC50: 0.1 mg/L (≈ 0.402 µM)
SMILES: CCc1nc(N)nc(N)c1-c1ccc(Cl)cc1 [pyrimethamine]
